The values that follow come from patent publication US20230348442A1, “GALECTIN-3 INHIBITING 2-HYDROXYCYCLOALKANE-1-CARBAMOYL DERIVATIVES” (Idorsia Pharmaceuticals Ltd, priority 2020, published 2023).

For the experiment, the target named is human Gal-3 (hGal-3) (Homo sapiens (Human), UniProt P17931). The experiment is described as follows: competitive binding assay: binding of biotinylated hGal-3 to microplate-adsorbed asialofetuin (ASF), spectrophotometric. The settings on record: Activity on hGal-3; mean values of several measurements. Summed up: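 Compounds diluted in DMSO competed with biotinylated hGal-3 or hGal-1 (300-1000 ng/mL) for binding to plate-adsorbed asialofetuin for 3 h at 4° C. Bound galectin was detected with streptavidin-peroxidase (80 ng/mL, 1 h, 4° C) and ABTS substrate; IC50 reported as mean of several measurements.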
Sequence of human Gal-3 (hGal-3) (P17931 whole entry): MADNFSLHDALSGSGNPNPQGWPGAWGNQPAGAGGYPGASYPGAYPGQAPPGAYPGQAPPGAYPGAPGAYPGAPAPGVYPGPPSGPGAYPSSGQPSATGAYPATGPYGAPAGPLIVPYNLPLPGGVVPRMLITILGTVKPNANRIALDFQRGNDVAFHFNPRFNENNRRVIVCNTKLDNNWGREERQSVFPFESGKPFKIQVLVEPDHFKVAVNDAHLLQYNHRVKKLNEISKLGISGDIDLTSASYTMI
A word on the IC50: it is the point on the concentration scale where inhibition reaches its midpoint. On to `CO[C@@H]1[C@@H](n2cc(-c3cc(F)c(Cl)c(Cl)c3)nn2)[C@@H](O)[C@@H](CO)O[C@H]1C(=O)N(c1cc(Cl)cc(C#N)c1)[C@@H]1CC[C@H]1O` [Example 2.17.4R, (2R,3R,4S,5R,6R)-N-(3-chloro-5-cyanophenyl)-4-(4-(3,4-dichloro-5-fluorophenyl)-1H-1,2,3-triazol-1-yl)-5-hydroxy-N-((1R,2R)-2-hydroxycyclobutyl)-6-(hydroxymethyl)-3-methoxytetrahydro-2H-pyran-2-carboxamide], for which the half-maximal inhibitory concentration (IC50) is 224 nM.

Molecule `CO[C@@H]1[C@@H](n2cc(-c3cc(F)c(Cl)c(Cl)c3)nn2)[C@@H](O)[C@@H](CO)O[C@H]1C(=O)N(c1cc(Br)cc(C#N)c1)[C@H]1CC[C@@H]1O` [Example 2.17.5, (2R,3R,4S,5R,6R)-N-(3-bromo-5-cyanophenyl)-4-(4-(3,4-dichloro-5-fluorophenyl)-1H-1,2,3-triazol-1-yl)-5-hydroxy-N-((1S,2S)-2-hydroxycyclobutyl)-6-(hydroxymethyl)-3-methoxytetrahydro-2H-pyran-2-carboxamide] displayed an IC50 of 56 nM.

Turning to `CO[C@@H]1[C@@H](n2cc(-c3cc(F)c(Cl)c(Cl)c3)nn2)[C@@H](O)[C@@H](CO)O[C@H]1C(=O)N(c1cc(Br)cc(C#N)c1)[C@@H]1CC[C@H]1O` [Example 2.17.5R, (2R,3R,4S,5R,6R)-N-(3-bromo-5-cyanophenyl)-4-(4-(3,4-dichloro-5-fluorophenyl)-1H-1,2,3-triazol-1-yl)-5-hydroxy-N-((1R,2R)-2-hydroxycyclobutyl)-6-(hydroxymethyl)-3-methoxytetrahydro-2H-pyran-2-carboxamide], the 50% inhibitory concentration (IC50) worked out at 254 nM.

With `CC(=O)O[C@@H]1[C@@H](n2cc(-c3cc(F)c(F)c(F)c3)nn2)[C@@H](O)[C@@H](CO)O[C@H]1C(=O)N(c1cc(Cl)cc(Cl)c1)[C@H]1CC[C@@H]1O` [Example 2A.1.2, (2R,3R,4S,5R,6R)-2-((3,5-dichlorophenyl)((1S,2S)-2-hydroxycyclobutyl)carbamoyl)-5-hydroxy-6-(hydroxymethyl)-4-(4-(3,4,5-trifluorophenyl)-1H-1,2,3-triazol-1-yl)tetrahydro-2H-pyran-3-yl acetate], the IC50 turned out to be 29 nM.

Turning to `CC(=O)O[C@@H]1[C@@H](n2cc(-c3cc(F)c(F)c(F)c3)nn2)[C@@H](O)[C@@H](CO)O[C@H]1C(=O)N(c1cc(Cl)cc(C#N)c1)[C@H]1CC[C@@H]1O` [Example 2A.1.4, (2R,3R,4S,5R,6R)-2-((3-chloro-5-cyanophenyl)((1S,2S)-2-hydroxycyclobutyl)carbamoyl)-5-hydroxy-6-(hydroxymethyl)-4-(4-(3,4,5-trifluorophenyl)-1H-1,2,3-triazol-1-yl)tetrahydro-2H-pyran-3-yl acetate], the IC50 is 36.2 nM. This IC50 and that of the molecule before are within 1.5-fold of each other.

`CC(=O)O[C@@H]1[C@@H](n2cc(-c3cc(F)c(F)c(F)c3)nn2)[C@@H](O)[C@@H](CO)O[C@H]1C(=O)N(c1cc(Cl)cc(C#N)c1)[C@@H]1CC[C@H]1O` [Example 2A.1.4R, (2R,3R,4S,5R,6R)-2-((3-chloro-5-cyanophenyl)((1R,2R)-2-hydroxycyclobutyl)carbamoyl)-5-hydroxy-6-(hydroxymethyl)-4-(4-(3,4,5-trifluorophenyl)-1H-1,2,3-triazol-1-yl)tetrahydro-2H-pyran-3-yl acetate] yielded an IC50 of 80.6 nM. This IC50 lies about 2.2-fold higher than the previous one.

For the molecule `O=C([C@@H]1O[C@H](CO)[C@H](O)[C@H](n2cc(-c3cc(F)c(F)c(F)c3)nn2)[C@H]1O)N(c1cc(Cl)cc(Cl)c1)[C@H]1CC[C@@H]1O` [Example 2H.1.2, (2R,3R,4S,5R,6R)-N-(3,5-dichlorophenyl)-3,5-dihydroxy-N-((1S,2S)-2-hydroxycyclobutyl)-6-(hydroxymethyl)-4-(4-(3,4,5-trifluorophenyl)-1H-1,2,3-triazol-1-yl)tetrahydro-2H-pyran-2-carboxamide], the concentration for half-maximal inhibition (IC50) amounted to 67.5 nM.

In the case of `N#Cc1cc(Cl)cc(N(C(=O)[C@@H]2O[C@H](CO)[C@H](O)[C@H](n3cc(-c4cc(F)c(F)c(F)c4)nn3)[C@H]2O)[C@H]2CC[C@@H]2O)c1` [Example 2H.1.4, (2R,3R,4S,5R,6R)-N-(3-chloro-5-cyanophenyl)-3,5-dihydroxy-N-((1S,2S)-2-hydroxycyclobutyl)-6-(hydroxymethyl)-4-(4-(3,4,5-trifluorophenyl)-1H-1,2,3-triazol-1-yl)tetrahydro-2H-pyran-2-carboxamide], the IC50 worked out at 33.8 nM.

Molecule “(2R,3R,4S,5R,6R)-N-(3,5-dichlorophenyl)-3,5-dihydroxy-N-((1S,2S)-2-hydroxycyclopentyl)-6-(hydroxymethyl)-4-(4-(3,4,5-trifluorophenyl)-1H-1,2,3-triazol-1-yl)tetrahydro-2H-pyran-2-carboxamide [Example 1H.1.2]” had an IC50 of 29.4 nM. This IC50 and that of the molecule before are within 1.5-fold of each other.
